PMC8451667 (Emerging Microbes & Infections, 2021)
Where two headings read alike, the source gives them in different places.

How the values were obtained:
[1] = tested on: A/California/04/2009 (H1N1) Ca/04; test: microbe, parasite or virus in culture; assay type: cell-based; conditions: Influenza A virus
[2] = tested on: Ca/04 OsR (A/California/04/2009 (H1N1)-H275Y); design: species or system mice; conditions: mouse, in vivo
[3] = tested on: A/California/07/2009 (H1N1); test: microbe, parasite or virus in culture; assay type: cell-based, Influenza A virus
[4] = H1N1, read-out: EC50 (μM), A/California/04/2009 (H1N1) Ca/04

Row | SMILES | EC50 ([1]; H1N1, read-out: EC50 (nM), A/California/04/2009 (H1N1) Ca/04) | Body weight loss [2] | Survival [2] | Clinical signs ([2]; ip) | EC50 [1, 4] | EC50 increase at passage 6 [3] | EC50 ([3]; Influenza A virus, H1N1, read-out: EC50 (μM), serial passage)
1 | CCC(CC)O[C@@H]1C=C(C(=O)O)C[C@H](N)[C@H]1NC(C)=O [Oseltamivir carboxylate] | 1.4 ± 0.32 nM |  |  |  |  |  | 
2 | [2H]C(NC12CC3CC(CC(O)(C3)C1)C2)c1ccc(I)s1 (stereo not shown) [UAWJ280, 3-{[(5-iodothiophen-2-yl)(D)methyl]amino}adamantan-1-ol] |  | ~15% | 65% | mild clinical signs | 270 ± 40 nM | 7 fold | 0.27 µM
3 | CCOC(=O)C1=C[C@@H](OC(CC)CC)[C@H](NC(C)=O)[C@@H](N)C1 [Oseltamivir, Oseltamivir phosphate, reference compound] |  | ~20% | 16% |  |  |  | 
4 | NC12CC3CC(CC(C3)C1)C2 [Amantadine] |  |  |  |  | > 20000 nM |  | 
